Key:
[1] = target: T1, Glycogen phosphorylase, muscle form (Oryctolagus cuniculus, UniProt P00489); assay: Competitive inhibition of rabbit skeletal muscle glycogen phosphorylase b using Glc-1-P as substrate; set-up: species or system Muscle tissue
T1 sequence (P00489 whole entry): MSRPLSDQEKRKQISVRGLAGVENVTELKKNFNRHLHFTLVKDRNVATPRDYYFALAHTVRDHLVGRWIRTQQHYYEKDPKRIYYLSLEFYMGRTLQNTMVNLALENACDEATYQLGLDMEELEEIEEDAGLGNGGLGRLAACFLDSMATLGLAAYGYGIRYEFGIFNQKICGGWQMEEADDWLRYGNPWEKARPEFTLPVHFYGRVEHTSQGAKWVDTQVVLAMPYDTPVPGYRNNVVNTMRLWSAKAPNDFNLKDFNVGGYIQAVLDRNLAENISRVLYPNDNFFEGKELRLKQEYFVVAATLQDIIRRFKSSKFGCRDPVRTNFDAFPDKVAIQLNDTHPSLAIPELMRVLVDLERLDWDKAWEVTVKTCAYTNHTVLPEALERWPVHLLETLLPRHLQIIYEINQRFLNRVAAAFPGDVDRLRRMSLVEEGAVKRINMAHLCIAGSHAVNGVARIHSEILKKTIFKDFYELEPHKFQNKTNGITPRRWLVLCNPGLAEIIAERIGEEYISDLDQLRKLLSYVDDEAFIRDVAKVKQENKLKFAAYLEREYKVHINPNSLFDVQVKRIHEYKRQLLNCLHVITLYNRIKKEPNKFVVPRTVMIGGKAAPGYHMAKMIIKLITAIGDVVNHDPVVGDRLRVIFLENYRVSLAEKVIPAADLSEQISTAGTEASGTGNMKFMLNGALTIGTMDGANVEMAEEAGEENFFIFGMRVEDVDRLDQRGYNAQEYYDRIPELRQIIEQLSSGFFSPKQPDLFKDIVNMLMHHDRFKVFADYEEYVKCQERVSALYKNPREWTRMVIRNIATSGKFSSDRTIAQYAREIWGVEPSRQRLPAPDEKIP

[2] = target: Glycogen phosphorylase, muscle form, Oryctolagus cuniculus (UniProt P00489); assay: Inhibition of glycogen phosphorylase b
HepG2 [3] = assay: Cytotoxicity against human HepG2 cells assessed as decrease in viability up to 500 uM after 6 hrs by MTT assay relative to control; format: cell-based; conditions: hepg2, 6 h
[4] = target: T2, Glycogen phosphorylase, muscle form (Homo sapiens, UniProt P11217); assay: Inhibition of glycogen phosphorylase b in human HepG2 cells after 3 hrs; format: cell-based
T2 sequence (P11217 whole entry): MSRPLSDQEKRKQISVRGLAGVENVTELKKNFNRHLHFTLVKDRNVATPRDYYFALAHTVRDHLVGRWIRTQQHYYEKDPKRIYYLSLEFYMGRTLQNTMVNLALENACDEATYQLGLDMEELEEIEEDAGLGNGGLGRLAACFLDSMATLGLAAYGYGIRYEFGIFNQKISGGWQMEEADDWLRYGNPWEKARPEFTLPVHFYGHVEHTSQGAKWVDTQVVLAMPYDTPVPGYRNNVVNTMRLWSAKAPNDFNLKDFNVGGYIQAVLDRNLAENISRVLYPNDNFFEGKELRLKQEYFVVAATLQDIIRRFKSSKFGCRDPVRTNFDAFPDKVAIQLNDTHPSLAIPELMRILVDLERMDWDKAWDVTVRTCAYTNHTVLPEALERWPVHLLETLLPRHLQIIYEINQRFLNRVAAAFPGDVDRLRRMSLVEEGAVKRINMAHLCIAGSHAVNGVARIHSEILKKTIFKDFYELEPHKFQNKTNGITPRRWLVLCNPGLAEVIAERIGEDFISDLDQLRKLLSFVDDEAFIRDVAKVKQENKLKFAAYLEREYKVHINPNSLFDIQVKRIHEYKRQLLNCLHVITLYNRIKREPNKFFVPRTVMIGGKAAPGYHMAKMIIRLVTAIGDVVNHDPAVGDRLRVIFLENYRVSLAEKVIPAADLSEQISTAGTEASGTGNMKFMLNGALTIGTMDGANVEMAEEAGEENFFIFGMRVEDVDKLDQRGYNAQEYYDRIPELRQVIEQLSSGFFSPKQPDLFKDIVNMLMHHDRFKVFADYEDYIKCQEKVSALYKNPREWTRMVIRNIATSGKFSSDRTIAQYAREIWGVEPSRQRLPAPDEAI

HepG2 [5] = assay: Cytotoxicity against human HepG2 cells up to 150 uM after 6 hrs by MTT assay; format: cell-based; conditions: hepg2, 6 h

SMILES | Ki [1] | Ki [2] | also measured
CCCCCc1cc2cn([C@@H]3O[C@H](CO)[C@@H](O)[C@H](O)[C@H]3O)c(=O)nc2o1 | 33.4 µM |  | 
CCCc1cc2cn([C@@H]3O[C@H](CO)[C@@H](O)[C@H](O)[C@H]3O)c(=O)nc2o1 | 32.4 µM |  | 
CCCC#Cc1cn([C@@H]2O[C@H](CO)[C@@H](O)[C@H](O)[C@H]2O)c(=O)[nH]c1=O | 303 µM |  | 
CCCCCC#Cc1cn([C@@H]2O[C@H](CO)[C@@H](O)[C@H](O)[C@H]2O)c(=O)[nH]c1=O |  |  | IC50 [1]: 6.1 mM

More lines, main results first:

Ki [1] | Ki [2] | SMILES | also measured
 | 1940 nM | O=c1[nH]c(=O)n([C@@H]2O[C@H](CO)[C@@H](O)[C@H](O)[C@H]2O)cc1I | 
1.02 µM | 1020 nM | O=c1[nH]c(=O)n([C@@H]2O[C@H](CO)[C@@H](O)[C@H](O)[C@H]2O)cc1Cl | 
 | 3270 nM | O=c1[nH]c(=O)n([C@@H]2O[C@H](CO)[C@@H](O)[C@H](O)[C@H]2O)cc1Br | 
4.7 µM |  | C#Cc1cn([C@@H]2O[C@H](CO)[C@@H](O)[C@H](O)[C@H]2O)c(=O)[nH]c1=O | Activity (HepG2 [3]): 10%; IC50 [4]: 291 µM; Activity (HepG2 [5]): Non-toxic

Reference: ChEMBL document CHEMBL2040778, “The binding of C5-alkynyl and alkylfurano[2,3-d]pyrimidine glucopyranonucleosides to glycogen phosphorylase b: synthesis, biochemical and biological assessment” (Eur J Med Chem, 2012)
